The values below come from PubChem BioAssay AID1963966 (Molecular Pharmacology Branch, DTP, NCI, 2024).

For this test, the system named is 935938-334-R-J1-PDC spheroids with HUVEC/MSC, viability. Briefly: Anticancer human tumor 935938-334-R-J1-PDC patient-derived small intestine adenocarcinoma cell line growth inhibition [PI3K]. The settings on record: for viability, T/C: stronger effect = lower value. The source says:
Combinatorial screen of targeted agents with the PI3K inhibitors inavolisib, alpelisib, duvelisib, and copanlisib in multi-cell type tumor spheroids
A high-throughput screen of multi-cell type tumor spheroids was designed to identify active combinations of targeted small molecules and PI3K pathway inhibitors. Complex spheroids include a stromal component modeled by human endothelial cells (HUVEC) and fibroblasts modeled by human mesenchymal stem cells (MSCs). The concentration ranges selected for each drug and investigational agent were based upon clinically achievable concentrations if the clinical Cmax of the agent was known.
Compounds. The drugs and investigational agents: inavolisib (NSC800729), alpelisib (NSC765974), duvelisib (NSC772469), copanlisib (NSC816437), ipatasertib (NSC767898), afuresertib (NSC778305), talazoparib (NSC767125), sapanisertib (NSC764658), selumetinib (NSC741078), tovorafenib (DAY101, NSC766906), vemurafenib (NSC761431), ravoxertinib (NSC781343), sotorasib (NSC818433), MRTX1133 (NSC 836407), abemaciclib (NSC 768073), palbociclib (NSC758247), venetoclax (NSC 766270), SY5609 (NSC837396), enzalutamide (NSC755605), and darolutamide (NSC825331), were obtained from the National Cancer Institute (NCI) Developmental Therapeutics Program Chemical Repository. The FDA-approved anticancer drug set is available from the NCI Developmental Therapeutics Program. […] The stock solutions were prepared in dimethyl sulfoxide (DMSO, Sigma-Aldrich, St. Louis, MO, cat. D2650) at 800-fold the tested concentration and stored at -70 degrees C prior to their use. All drugs and investigational agents were tested over a range starting from a high concentration at or near the clinical Cmax and decreasing in half-log increments. If the clinical Cmax for an agent had not been determined, the highest concentration tested was 10 microM.
Cell Culture. All cells were maintained in an incubator at 37 degrees C and 5% CO2 with 95% humidity. The PDC lines were cultured according to standard operating procedures established by the NCI PDMR (https://pdmr.cancer.gov/sops/default.htm). All PDCs were thawed and cultured in Matrigel-coated flasks prepared with a working solution of 1X Ham's F-12 nutrient mix, without supplementation (Invitrogen, Waltham, MA, cat. 11765054), 100 U/mL penicillin-streptomycin (Invitrogen, cat. 15140122), and 2.5% Matrigel (Corning Inc., Corning, NY, cat. 354248) for the first three passages. The 354836-022-R-J1-PDC, 475296-252-R-J1-PDC, and 997726-040-R-J2-PDC lines were cultured in 6A media, which includes advanced DMEM/F-12 (Thermo Fisher Scientific, cat. 12634028), 10 mM HEPES (Thermo Fisher Scientific, cat. 15630080), 1X GlutaMAX supplement (Thermo Fisher Scientific, cat. 35050061), 0.1 mg/mL primocin (InvivoGen, San Diego, CA, cat. ant-pm-2), 10% defined fetal bovine serum, heat inactivated (HyClone Laboratories Inc., Logan, UT, cat. SH30070.03HI), 50% L-WRN conditioned media (ATCC, cat. CRL-3276), 1.25 mM N-Acetyl-L-cysteine (Sigma-Aldrich, cat. A9165), 10 mM nicotinamide (Sigma-Aldrich, cat. N0636), 1X B-27 supplement (Thermo Fisher Scientific, cat. 17504044), 1X N-2 supplement (Thermo Fisher Scientific, cat. 17502048), and 10 microM Y-27632 dihydrochloride (Tocris Bioscience, Bristol, United Kingdom, cat. 1254). The 624824-186-R-J2-PDC line was cultured in 6C/Colon 1B media, which includes all 6A media components plus 50 ng/mL human EGF recombinant protein (Thermo Fisher Scientific, cat. PHG0311). […]

Setting [1] is: curve of first compound, second compound 0.00316 µM.
Setting [2] is: curve of first compound, second compound 0.01 µM.
Setting [3] is: curve of first compound, second compound 0.0316 µM.
Setting [4] is: curve of first compound, second compound 0.1 µM.
Where [5] appears, read: curve of first compound, second compound 0.316 µM.
Setting [6] is: curve of first compound, second compound 1 µM.
Setting [7] is: second compound 0.00316 µM, first compound 0.0316 µM.
Setting [8] is: second compound 0.00316 µM, first compound 0.1 µM.
The mark [9] stands for this setting: second compound 0.00316 µM, first compound 0.316 µM.
Setting [10] is: second compound 0.00316 µM, first compound 1 µM.
Where [11] appears, read: second compound 0.00316 µM, first compound 3.16 µM.
[12] abbreviates: second compound 0.00316 µM, first compound 10 µM.
Setting [13] is: second compound 0.01 µM, first compound 0.0316 µM.
[14] abbreviates: second compound 0.01 µM, first compound 0.1 µM.
Setting [15] is: second compound 0.01 µM, first compound 0.316 µM.
Setting [16] is: second compound 0.01 µM, first compound 1 µM.
Where [17] appears, read: second compound 0.01 µM, first compound 3.16 µM.
[18] abbreviates: second compound 0.01 µM, first compound 10 µM.
[19] abbreviates: second compound 0.0316 µM, first compound 0.0316 µM.
[20] abbreviates: second compound 0.0316 µM, first compound 0.1 µM.
Where [21] appears, read: second compound 0.0316 µM, first compound 0.316 µM.
Setting [22] is: second compound 0.0316 µM, first compound 1 µM.
Where [23] appears, read: second compound 0.0316 µM, first compound 3.16 µM.
Where [24] appears, read: second compound 0.0316 µM, first compound 10 µM.
The mark [25] stands for this setting: second compound 0.1 µM, first compound 0.0316 µM.
Setting [26] is: second compound 0.1 µM, first compound 0.1 µM.
[27] abbreviates: second compound 0.1 µM, first compound 0.316 µM.
[28] abbreviates: second compound 0.1 µM, first compound 1 µM.
Setting [29] is: second compound 0.1 µM, first compound 3.16 µM.
Setting [30] is: second compound 0.1 µM, first compound 10 µM.
[31] abbreviates: second compound 0.316 µM, first compound 0.0316 µM.
Where [32] appears, read: second compound 0.316 µM, first compound 0.1 µM.
The mark [33] stands for this setting: second compound 0.316 µM, first compound 0.316 µM.
The mark [34] stands for this setting: second compound 0.316 µM, first compound 1 µM.
[35] abbreviates: second compound 0.316 µM, first compound 3.16 µM.
Where [36] appears, read: second compound 0.316 µM, first compound 10 µM.
[37] abbreviates: second compound 1 µM, first compound 0.0316 µM.
Where [38] appears, read: second compound 1 µM, first compound 0.1 µM.
Where [39] appears, read: second compound 1 µM, first compound 0.316 µM.
The mark [40] stands for this setting: second compound 1 µM, first compound 1 µM.
The mark [41] stands for this setting: second compound 1 µM, first compound 3.16 µM.
[42] abbreviates: second compound 1 µM, first compound 10 µM.

Broadly, the IC50 is the concentration needed to halve the response being measured. As usually defined, the viability, T/C is the result in the treated group divided by that in the control group, in per cent.
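Further: compound exposure lasted seven days before viability was read.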
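Wherever viability, T/C is given: percent of vehicle DMSO treated spheroid viability so 100% = untreated.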

For the compound `CC1(C)CCC(CN2CCN(c3ccc(C(=O)NS(=O)(=O)c4ccc(NCC5CCOCC5)c([N+](=O)[O-])c4)c(Oc4cnc5[nH]ccc5c4)c3)CC2)=C(c2ccc(Cl)cc2)C1` + COc1c(OCCCN2CCOCC2)ccc2c3n(c(=NC(=O)c4cnc(N)nc4)nc12)CCN3, the IC50 is, setting by setting: under setting [1], above 10 µM; under setting [2], above 10 µM; under setting [3], above 10 µM; under setting [4], 10 µM; under setting [5], below 0.0316 µM; under setting [6], below 0.0316 µM. Further, the viability, T/C is, setting by setting: under setting [7], 98.6%; under setting [8], 99.3%; under setting [9], 92.7%; under setting [10], 110%; under setting [11], 84.8%; under setting [12], 93.1%. In addition, the viability, T/C under setting [13] was 108%; the viability, T/C under setting [14] is 85.6%; the viability, T/C under setting [15] is 83.7%; the viability, T/C under setting [16] is 66.8%; the viability, T/C under setting [17] is 82.4%; the viability, T/C under setting [18] was 84.8%. Moreover, the viability, T/C under setting [19] is 67.7%; the viability, T/C under setting [20] is 68.6%; the viability, T/C under setting [21] is 71.1%; the viability, T/C under setting [22] is 68.5%; the viability, T/C under setting [23] is 69.5%; the viability, T/C under setting [24] was 74%. Besides, the viability, T/C is 66.5% under setting [25]; 44.7% under setting [26]; 56.8% under setting [27]; 52.2% under setting [28]; 52.5% under setting [29]; 47.3% under setting [30]. Further, the viability, T/C is 27.1% under setting [31]; 36.2% under setting [32]; 30% under setting [33]; 33.2% under setting [34]; 33.6% under setting [35]; 40.1% under setting [36]. Further, the viability, T/C was 34.6% under setting [37]; 39.5% under setting [38]; 38.9% under setting [39]; 29.3% under setting [40]; 34.9% under setting [41]; 32.6% under setting [42].

For `CC(Cn1ccc(-c2ccc(C#N)c(Cl)c2)n1)NC(=O)c1cc(C(C)O)[nH]n1` (stereo not given), the viability, T/C is 90.6% [middle of 4 runs] (compound 0.0316 µM) and 101% [middle of 4 runs] (compound 0.316 µM). Moreover, the half-inhibitory concentration (IC50) (curve of compound) was above 10 µM.

On to `CCCS(=O)(=O)Nc1ccc(F)c(C(=O)c2c[nH]c3ncc(-c4ccc(Cl)cc4)cc23)c1F` + COc1c(OCCCN2CCOCC2)ccc2c3n(c(=NC(=O)c4cnc(N)nc4)nc12)CCN3, for which the IC50 runs as follows: under setting [1], 7.39 µM; under setting [2], 7.41 µM; under setting [3], 6.73 µM; under setting [4], 5.38 µM; under setting [5], below 0.0316 µM; under setting [6], below 0.0316 µM. Besides, the viability, T/C was 97.3% under setting [7]; 104% under setting [8]; 113% under setting [9]; 132% under setting [10]; 102% under setting [11]; 31.2% under setting [12]. Further, the viability, T/C under setting [13] was 123%; the viability, T/C under setting [14] was 107%; the viability, T/C under setting [15] was 96.1%; the viability, T/C under setting [16] was 120%; the viability, T/C under setting [17] is 115%; the viability, T/C under setting [18] is 28.1%. In addition, the viability, T/C under setting [19] was 95%; the viability, T/C under setting [20] was 81.4%; the viability, T/C under setting [21] is 85%; the viability, T/C under setting [22] was 108%; the viability, T/C under setting [23] is 87.9%; the viability, T/C under setting [24] was 29.5%. The viability, T/C was 61.8% under setting [25]; 65.5% under setting [26]; 65.3% under setting [27]; 89.1% under setting [28]; 70.6% under setting [29]; 26.7% under setting [30]. The viability, T/C was 39% under setting [31]; 45.2% under setting [32]; 51.6% under setting [33]; 49.3% under setting [34]; 49.5% under setting [35]; 31.9% under setting [36]. In addition, the viability, T/C is, setting by setting: under setting [37], 39.2%; under setting [38], 40.9%; under setting [39], 39.3%; under setting [40], 50%; under setting [41], 50.3%; under setting [42], 23.9%.

Take `C[C@@H](NC(=O)c1ncnc(N)c1Cl)c1ncc(C(=O)Nc2cc(C(F)(F)F)c(Cl)cn2)s1`: the viability, T/C (compound 0.0316 µM) is 109% [middle of 4 runs] and the viability, T/C (compound 10 µM) is 83.3% [middle of 4 runs]. Also, the half-inhibitory concentration (IC50) (curve of compound) was above 10 µM.
